Reference: US8663608B2, “Hydroxytyrosol compounds” (University of Cape Town, priority 2009, dated 2014)
Values joined by “and” are separate entries in the source; they are usually repeats but may differ in a detail not shown here. Equal values may be shown once.

Experiments:
[1] = DPPH radical scavenging assay; type: biochemical; conditions: for Radical Scavenging Activity (%): compared to standard ascorbic acid (100%); for Final time of reaction: time to steady state
Experimental: The DPPH assay is based on the change in absorbance at 515 nm, upon reduction of the DPPH radical, by an antioxidant. The antioxidant activity of a putative antioxidant is measured by monitoring the decrease in absorbance when the colour of the solution fades. In this assay, the reaction between the test antioxidant and DPPH radical is allowed to continue until it reaches a steady state. The amount of the radical quenched when steady state is reached is dependent on the antioxidant capacity and the concentration of the antioxidant. 100 μl (1 mg/3 ml) of the respective sample was added to 3.9 ml DPPH solution (25 mg/L in methanol). The decrease in absorbance at 515 nm was monitored using a Unicam UV-visible spectrophotometer, until the reaction reached steady state.

Bcl-2 = assay: Western blot of Bcl-2 expression in UVA-irradiated HaCaTs; type: cell-based, human; conditions: for % Bcl-2 Expression: relative to control (100%)
Text: (§1) Apoptosis can take place through the extrinsic pathway or the intrinsic pathway. The extrinsic pathway involves transmembrane receptor-mediated interactions which involve members of the tumour necrosis factor (TNF). The intrinsic pathway is a mitochondrial-initiated event and thus is of interest for this study. The intrinsic pathway can progress in a caspase-dependent or independent way. The caspase-independent route involves a protein called AIF which when released from the mitochondria, translocates directly to the nucleus and induces apoptosis. The alternative caspase-dependent route involves members of the Bcl-2 family of proteins. This family of proteins is responsible for regulating the permeability of the mitochondrial membrane and can be either pro-apoptotic or anti-apoptotic; Bcl-2 is anti-apoptotic while Bax is pro-apoptotic. The cells' sensitivity to apoptotic stimuli depends on the balance of pro-apoptotic (Bax) and anti-apoptotic (Bcl-2) proteins. […] An excess of Bax results in the cells being more susceptible to apoptosis, and an excess of Bcl-2 renders the cells more resistant to apoptosis. To determine the nature of the anti-apoptotic effect mediated by Polymer Compound 57 and hydroxytyrosol due to UVA irradiation, the Bax/Bcl-2 ratio was studied using Western blot analysis. To evaluate the expression of Bcl-2, Bax and AIF, the cells were cultured and treated with varying concentrations between 200 and 1000 μM of Polymer Compound 57 and hydroxytyrosol for 18 hrs, and then irradiated at 22.3 J/cm^2. Protein extraction was conducted and proteins were quantified using the BCA method. […] The purpose of this control is to ensure that it is only the UVA rays that result in the observed effects, and not the heat in the chamber. Alpha tubilin was used as a loading control in each experiment to ensure that the results were quantified correctly. Since the Western blot results are quantified by band size, it is important to ensure that each sample has the same amount of protein when loaded and the loading control helps to determine this. The band obtained when the proteins are probed with the loading control represent the amount of protein in that loaded sample.

Bax = assay: Western blot of Bax expression in UVA-irradiated HaCaTs; type: cell-based, human; conditions: for % Bax Expression: relative to control (100%)
Text: as §1

AIF = assay: Western blot of AIF expression in UVA-irradiated HaCaTs; type: cell-based, human; conditions: for % AIF Expression: relative to control (100%)
Text: as §1

[2] = tested on: UVA-induced H2O2 production in keratinocytes; assay: ROS assay (DHR 123, FACS) in UVA-irradiated keratinocytes; type: cell-based, human
Text: UVA irradiation of cultured human skin cells results in over-elevated levels of H2O2 and other ROS (reactive oxygen species), with H2O2 being the predominant species. Dihydrorhodamine (DHR 123) can be used to detect H2O2 produced following irradiating the cells with UVA. […] The mean fluorescence (MF), read on a fluorescent activated cell sorter (FACS) machine thus indicates intracellular H2O2 production. To elucidate the effect that Polymer Compound 57 would have on the over-expression of ROS due to irradiation, H2O2 production in keratinocytes was measured. The cells were first treated with the various concentrations of the Polymer Compound 57, irradiated with UVA and then exposed to the dye DHR 123.

[3] = FRAP assay (iron (III) reduction ability); type: biochemical; conditions: 1 ml (1 mg/3 ml) sample
Experimental: The FRAP assay measures the ability of an antioxidant to reduce a ferroin analog, the Fe complex of tripyridyltriazine, Fe (TPTZ)^3+, to the intensely blue coloured Fe^2+ in an acidic medium. Results are obtained as absorbance increases at 593 nm and can be expressed relative to an antioxidant standard, ascorbic acid in this case.
1 ml (1 mg/3 ml) of the respective sample was added to 2.5 ml of potassium phosphate buffer (pH 7, 500 mM) 2.5 ml potassium ferricyanide was added. This was followed by incubation at 50° C. for 20 min. 10% (v/v) trichloracetic acid was added to stop the reaction. 2.5 ml of water was then added to 2.5 ml of the reaction. Iron chloride (0.5 ml) was added. The reaction was allowed to stand for 30 min after which the absorbance was read at 700 nm.

HaCaTs = assay: XTT cell viability assay in HaCaTs; type: cell-based, human
Experimental: To evaluate the toxicity of Polymer Compound 57 an XTT assay was conducted. The assay is based on the ability of viable cells to reduce yellow XTT tetrazolium salts to an orange formazan which is then measured at an absorbance of 450 nm. The HaCaTs were incubated overnight with increasing concentrations of Polymer Compound 57. Cell viability was then evaluated by adding the XTT solution, incubating for 4 hrs at 37° C., and then reading the absorbance at 450 nm.
To further explore the effect of the antioxidants a dose and time response study was carried out to determine the long term effect of Polymer Compound 57.

[4] = tested on: low density lipoprotein (LDL); assay: LDL oxidation assay (conjugated diene formation); type: biochemical; conditions: 50 μM test antioxidant; LDL oxidized with 5 μM CuCl2; relative to ascorbic acid
Experimental: Oxidation of low density lipoprotein (LDL) was performed according to the method developed by Nardini et al (1995). LDL was dialyzed in a 200 fold volume of PBS of pH 7 in the dark for 18 hrs. 100 μg/ml LDL, determined with the Bradford method, was oxidized with 5 μM CuCl2 for 4 hrs at 37° C. in the presence and absence of 50 μM test antioxidant. Conjugated diene formation was measured spectroscopically at 234 nm using a Unicam UV-visible spectrophotometer.
The antioxidant ability of Polymer Compound 57 to inhibit LDL oxidation was assessed by adding it to a reaction mixture containing LDL previously treated with copper to initiate the oxidation. The antioxidant ability of the compound was measured based on the increase in absorbance due to diene conjugation at 234 nm.

## O=C1O[C@H]([C@@H](O)CO)C(O)=C1O [Ascorbic acid, reference compound]
[1]; 0.002M sample
  Radical Scavenging Activity (%): 100%
  Final time of reaction: 4 min

## OCCc1ccc(O)c(O)c1 [Hydroxytyrosol]
Bcl-2; 200 μM
  % Bcl-2 Expression: 83%
Bcl-2; 333 μM
  % Bcl-2 Expression: 90%
Bcl-2; 1000 μM
  increase in Bcl-2 levels of expression relative to the control: 7%
  % Bcl-2 Expression: 110%
Bax; 200 μM
  % Bax Expression: 128%
Bax; 333 μM
  % Bax Expression: 116%
Bax; 1000 μM
  % Bax Expression: 100%
AIF; 200 μM
  % AIF Expression: 91%
AIF; 333 μM
  % AIF Expression: 82%
AIF; 1000 μM
  reduction of AIF levels relative to the control: 15%
  % AIF Expression: 42%

## OCCc1cc(O)c(O)c(-c2cc(CCO)cc(O)c2O)c1 [Polymer Compound 57]
Bcl-2; 200 μM
  % Bcl-2 Expression: 50%
Bcl-2; 333 μM
  % Bcl-2 Expression: 84%
Bcl-2; 500 μM
  increase in Bcl-2 levels of expression relative to the control: 16%
Bcl-2; 1000 μM
  % Bcl-2 Expression: 118%
Bax; 200 μM
  reduction of Bax levels relative to the control: 75% and 70%
  % Bax Expression: 31%
Bax; 333 μM
  reduction of Bax levels relative to the control: 87.5%
  % Bax Expression: 17%
Bax; 500 μM
  reduction of Bax levels relative to the control: 87.5%
Bax; 1000 μM
  % Bax Expression: 14%
Bax; "lowest concentration" as printed
  decrease of Bax levels relative to the control (100%): 85%
AIF; 200 μM
  AIF levels reduced to, relative to the control: 28%
  % AIF Expression: 78%
AIF; 333 μM
  AIF levels reduced to, relative to the control: 32%
  % AIF Expression: 74%
AIF; 500 μM
  AIF levels reduced to, relative to the control: 32%
AIF; 1000 μM
  % AIF Expression: 38%
[2]; 200 μM
  mean fluorescence (ROS level) relative to control of 100%: 87-100%
[2]; 333 μM
  mean fluorescence (ROS level) relative to control of 100%: 85%
[3]
  antioxidant activity equivalent of ascorbic acid: 363 mg/L
HaCaTs; 3 day period, concentrations non-toxic over 24 hr
  long term toxicity to HaCaTs: non-toxic
HaCaTs; HaCaTs, overnight incubation
  concentrations resulting in marked decreases in cell viability: higher than 500 μM
  concentrations with no negative effect on cell viability: 200 to 500 µM
[1]; 0.0004M sample
  Radical Scavenging Activity (%): 86.7%
  Final time of reaction: 7 min
[4]
  effect on absorbance at 234 nm due to diene conjugation: absorbance-decreasing effect
